# Test results taken from patent US9187453B2, “Heterocyclic compound” (Takeda Pharmaceutical Company Limited, priority 2012, dated 2015).
# Counter-ions that a name gives are not always drawn.
# Biological target: T1, Tyk2 (Homo sapiens, UniProt P29597)
# T1 construct: purchased Invitrogen
# Test: Tyk2 enzyme inhibition test (LANCE method)
# Type: biochemical
# Details: compound 1 μM; Tyk2 (Invitrogen), ULight-JAK1 substrate, ATP; well without enzyme = 100% inhibition; read-out: Tyk2 enzyme inhibitory activity (%, 1 μM)
# Experimental: Tyk2 enzyme inhibitory activity of test compounds was measured by LANCE method (PerkinElmer). First, a test compound diluted with assay buffer (50 mM HEPES (pH=7.5), […], 1 mM EGTA, 2 mM DTT, 0.01% Tween20, 0.01% BSA) was added to 384-well plate at 2 μL each. Then, a Tyk2 (Invitrogen) solution and a fluorescence-labeled peptide substrate (ULight-JAK1, PerkinElmer) solution diluted with assay buffer at 375 ng/mL and 300 nM, respectively were added at 2 μL each. Then, enzyme reaction was started by adding 2 μL each of ATP solution prepared with assay buffer at 30 μM. After the reaction at room temperature for 1 hr, Detection Buffer (PerkinElmer) prepared to be 20 mM EDTA, 4 nM europium-labeled anti-phosphotyrosine antibody (PerkinElmer) was added at 6 μL each. After standing at room temperature for 1 hr, fluorescence intensity (excitation wavelength 340 nm, fluorescence wavelength 665 nm, delay time 100 microsecond) was measured by a plate reader, Envision (PerkinElmer). The inhibitory activity of each compound was calculated as relative value where fluorescence intensity of a well without enzyme is considered as 100% inhibition.
# T1 sequence (P29597 whole entry): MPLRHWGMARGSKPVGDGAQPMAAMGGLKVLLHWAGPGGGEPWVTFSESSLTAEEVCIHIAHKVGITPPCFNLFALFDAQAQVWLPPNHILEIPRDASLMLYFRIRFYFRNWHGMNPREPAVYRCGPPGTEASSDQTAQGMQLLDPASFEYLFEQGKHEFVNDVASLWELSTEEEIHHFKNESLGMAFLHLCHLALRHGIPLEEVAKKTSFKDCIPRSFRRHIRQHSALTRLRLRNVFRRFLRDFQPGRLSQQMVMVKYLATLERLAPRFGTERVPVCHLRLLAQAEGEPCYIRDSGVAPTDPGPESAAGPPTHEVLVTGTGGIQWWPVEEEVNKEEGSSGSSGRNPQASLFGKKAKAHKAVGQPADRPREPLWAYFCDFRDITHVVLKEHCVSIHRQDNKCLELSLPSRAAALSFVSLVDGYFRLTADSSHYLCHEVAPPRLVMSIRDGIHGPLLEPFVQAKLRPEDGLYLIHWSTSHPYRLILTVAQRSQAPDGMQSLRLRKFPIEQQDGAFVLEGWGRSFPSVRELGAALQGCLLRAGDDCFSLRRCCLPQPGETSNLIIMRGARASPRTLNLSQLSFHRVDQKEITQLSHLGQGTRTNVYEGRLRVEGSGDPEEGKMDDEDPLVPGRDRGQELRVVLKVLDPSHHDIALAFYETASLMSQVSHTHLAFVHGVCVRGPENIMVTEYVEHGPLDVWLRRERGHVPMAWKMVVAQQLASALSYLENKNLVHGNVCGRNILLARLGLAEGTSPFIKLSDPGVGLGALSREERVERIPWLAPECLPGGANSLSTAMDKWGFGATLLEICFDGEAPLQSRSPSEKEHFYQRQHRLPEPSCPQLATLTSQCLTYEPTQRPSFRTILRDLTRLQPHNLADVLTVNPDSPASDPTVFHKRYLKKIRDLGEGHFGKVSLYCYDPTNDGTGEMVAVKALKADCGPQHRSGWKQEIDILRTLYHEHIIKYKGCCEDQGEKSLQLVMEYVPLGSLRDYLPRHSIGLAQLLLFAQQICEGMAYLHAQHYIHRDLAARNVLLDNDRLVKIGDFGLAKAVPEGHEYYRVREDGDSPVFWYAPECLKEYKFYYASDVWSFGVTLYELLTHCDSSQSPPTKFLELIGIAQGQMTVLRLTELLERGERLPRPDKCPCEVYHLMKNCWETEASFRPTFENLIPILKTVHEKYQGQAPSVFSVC
row,SMILES,inhibition at 1 µM [%]
1,"CCC1(C#N)CCN(c2ccnc(Nc3cnn(C)c3)n2)C1=O (centres unmarked) [Example 1, 3-ethyl-1-(2-((1-methyl-1H-pyrazol-4-yl)amino)pyrimidin-4-yl)-2-oxopyrrolidine-3-carbonitrile]",99
2,"CC[C@]1(C#N)CCN(c2ccnc(Nc3ccc(N4CCOCC4)cc3)n2)C1=O [Example 4, (3R)-3-ethyl-1-(2-((4-(morpholin-4-yl)phenyl)amino)pyrimidin-4-yl)-2-oxopyrrolidine-3-carbonitrile]",100
3,"CC(C)[C@]1(C#N)CCN(c2ccnc(Nc3ccc(N4CCOCC4)cc3)n2)C1=O [Example 7, (3S)-3-isopropyl-1-(2-((4-(morpholin-4-yl)phenyl)amino)pyrimidin-4-yl)-2-oxopyrrolidine-3-carbonitrile]",100
4,"CCC1(CC)CCN(c2ccnc(Nc3cnn(C)c3)n2)C1=O [Example 10, 3,3-diethyl-1-(2-((1-methyl-1H-pyrazol-4-yl)amino)pyrimidin-4-yl)pyrrolidin-2-one hydrochloride]",97
5,"Cn1cc(Nc2nccc(N3CCCC3=O)n2)cn1 [Example 12, 1-(2-((1-methyl-H-pyrazol-4-yl)amino)pyrimidin-4-yl)pyrrolidin-2-one]",51
6,"CCC1(CC)CCN(c2ccnc(Nc3ccccc3)n2)C1=O [Example 15, 1-(2-anilinopyrimidin-4-yl)-3,3-diethylpyrrolidin-2-one]",89
7,"Cn1cc(Nc2ncc(F)c(N3CCC(C)(C)C3=O)n2)cn1 [Example 29, 1-(5-fluoro-2-((1-methyl-1H-pyrazol-4-yl)amino)pyrimidin-4-yl)-3,3-dimethylpyrrolidin-2-one]",91
8,"CCC1(CC#N)CCN(c2ccnc(Nc3cnn(C)c3)n2)C1=O (centres unmarked) [Example 31, (3-ethyl-1-(2-((1-methyl-1H-pyrazol-4-yl)amino)pyrimidin-4-yl)-2-oxopyrrolidin-3-yl)acetonitrile]",98
9,"CCC1(CC)CC(C)N(c2ccnc(Nc3cnn(C)c3)n2)C1=O (centres unmarked) [Example 33, 3,3-diethyl-5-methyl-1-(2-((1-methyl-1H-pyrazol-4-yl)amino)pyrimidin-4-yl)pyrrolidin-2-one hydrochloride]",97
10,"CCC1(C#N)CCN(c2ccnc(NCc3ccc(C#N)cc3)n2)C1=O (centres unmarked) [Example 61, 1-(2-((4-cyanobenzyl)amino)pyrimidin-4-yl)-3-ethyl-2-oxopyrrolidine-3-carbonitrile]",14

# More lines, now with the values ahead:
row,inhibition at 1 µM [%],SMILES
1,20,"CCC1(C#N)CCN(c2ccnc(NCc3ccco3)n2)C1=O (centres unmarked) [Example 72, 3-ethyl-1-(2-((2-furylmethyl)amino)pyrimidin-4-yl)-2-oxopyrrolidine-3carbonitrile]"
2,22,"CCC1(C#N)CCN(c2ccnc(NCC3CC3)n2)C1=O (centres unmarked) [Example 77, 1-(2-((cyclopropylmethyl)amino)pyrimidin-4-yl)-3-ethyl-2-oxopyrrolidine-3-carbonitrile]"
3,100,"CC(C)[C@]1(C#N)CCN(c2ccnc(Nc3cnn(CC(N)=O)c3)n2)C1=O [Example 85, 2-(4-((4-((3S)-3-cyano-3-isopropyl-2-oxopyrrolidin-1-yl)pyrimidin-2-yl)amino)-1H-pyrazol-1-yl)acetamide hydrochloride]"
4,100,"CNC(=O)Cn1cc(Nc2nccc(N3CC[C@@](C#N)(C(C)C)C3=O)n2)cn1 [Example 86, 2-(4-((4-((3S)-3-cyano-3-isopropyl-2-oxopyrrolidin-1-yl)pyrimidin-2-yl)amino)-1H-pyrazol-1-yl)-N-methylacetamide hydrochloride]"
5,100,"CC(C)[C@]1(C#N)CCN(c2ccnc(Nc3cnn(CC(=O)N(C)C)c3)n2)C1=O [Example 87, 2-(4-((4-((3S)-3-cyano-3-isopropyl-2-oxopyrrolidin-1-yl)pyrimidin-2-yl)amino)-1H-pyrazol-1-yl)-N,N-dimethylacetamide hydrochloride]"
6,88,"Cn1cc(Nc2nccc(N3CCCC(C)(C)C3=O)n2)cn1 [Example 101, 3,3-dimethyl-1-(2-((1-methyl-1H-pyrazol-4-yl)amino)pyrimidin-4-yl) piperidin-2-one hydrochloride]"
7,100,"CC(C)(CO)n1cc(Nc2nccc(N3CC[C@@](C#N)(C4CC4)C3=O)n2)cn1 [Example 103, (3S)-3-cyclopropyl-1-(2-((1-(1-hydroxy-2-methylpropan-2-yl)-1H-pyrazol-4-yl)amino)pyrimidin-4-yl)-2-oxopyrrolidine-3-carbonitrile]"
8,99,"CC(C)(C(N)=O)n1cc(Nc2nccc(N3CC[C@@](C#N)(C4CC4)C3=O)n2)cn1 [Example 109, 2-(4-((4-((3S)-3-cyano-3-cyclopropyl-2-oxopyrrolidin-1-yl)pyrimidin-2-yl)amino)-1H-pyrazol-1-yl)-2-methylpropanamide hydrochloride]"
9,100,"N#C[C@@]1(C2CC2)CCN(c2ccnc(Nc3cnn(C4(CO)CC4)c3)n2)C1=O [Example 128, (3S)-3-cyclopropyl-1-(2-((1-(1-(hydroxymethyl)cyclopropyl)-1H-pyrazol-4-yl)amino)pyrimidin-4-yl)-2-oxopyrrolidine-3-carbonitrile]"
10,24,"CNC(=O)Cn1cc(Nc2nccc(N3CC[C@](C#N)(C4CC4)C3=O)n2)cn1 [Example 133, 2-(4-((4-((3R)-3-cyano-3-cyclopropyl-2-oxopyrrolidin-1-yl)pyrimidin-2-yl)amino)-1H-pyrazol-1-yl)-N-methylacetamide hydrochloride]"
11,99,"CNC(=O)Cn1cc(Nc2nccc(N3CC[C@@](C#N)(C4CC4)C3=O)n2)cn1 [Example 134, 2-(4-((4-((3S)-3-cyano-3-cyclopropyl-2-oxopyrrolidin-1-yl)pyrimidin-2-yl)amino)-1H-pyrazol-1-yl)-N-methylacetamide hydrochloride]"
12,99,"CC(C)[C@]1(C#N)CCN(c2ccnc(Nc3cnn(CCC(=O)N(C)C)c3)n2)C1=O [Example 265, 3-(4-((4-((3S)-3-cyano-3-isopropyl-2-oxopyrrolidin-1-yl)pyrimidin-2-yl)amino)-1H-pyrazol-1-yl)-N,N-dimethylpropanamide]"

# Test system: IL-23
# Test: IL-23-induced IL-22 in rat auricle tissue
# Type: in vivo
# Details: 10 mg/kg, q.d., oral, 30 min before intradermal mouse IL-23 into right auricle; IL-22 in auricle tissue by ELISA about 24 hr later; mean of n=6
# Experimental: Recombinant mouse IL-23 (1 μg/20 μL/site) was intradermally administered into the right auricle of 7-8-week-old LEWEIS male rat. As control, phosphate buffered saline (PBS) which is a solvent was administered instead of IL-23. Then, a drug (the compound of Example 103) suspended in 0.5% methyl cellulose (MC) was orally administered 30 min before IL-23 administration, respectively. 0.5% MC was used as vehicle. The auricle tissues of 6 mm diameter were collected about 24 hr after IL-23 administration. Lysis buffer was added thereto, the tissues were crushed using beads, and centrifugalized, and the supernatant was collected. IL-22 in the tissues was measured using ELISA kit (R & D Systems). The result is shown below as a IL-23 inhibitory rate relative to vehicle. (mean of n=6)
row,SMILES,IL-23 inhibitory rate relative to vehicle [%]
1,"CC(C)(CO)n1cc(Nc2nccc(N3CC[C@@](C#N)(C4CC4)C3=O)n2)cn1 [Example 103, (3S)-3-cyclopropyl-1-(2-((1-(1-hydroxy-2-methylpropan-2-yl)-1H-pyrazol-4-yl)amino)pyrimidin-4-yl)-2-oxopyrrolidine-3-carbonitrile]",79
